Measured values taken from PubChem BioAssay AID248 (DTP/NCI, 2004).
“And” between values parts separate entries of the source, which are not always exact repeats. Equal values may be shown once. Inconclusive results and toxic doses are left out.

System: L1210 leukemia ip in BDF1 mice, survival T/C
Test: NCI In Vivo Anticancer Drug Screen. Data for tumor model L1210 Leukemia (intraperitoneal) in B6D2F1 (BDF1) mice
Details: endpoint: mean survival time, higher = longer survival
Summary of the method: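 Tumor cells were implanted, animals were treated, and survival was followed. The result divides the treated measurement by the vehicle-control measurement.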

[1] = dose: 100.0 mg/kg/injection, schedule: Q01DX009 (ip), vehicle: saline
[2] = dose: 200.0 mg/kg/injection, schedule: Q01DX009 (ip), vehicle: saline
[3] = dose: 400.0 mg/kg/injection, schedule: Q01DX009 (ip), vehicle: saline
[4] = dose: 100.0 mg/kg/injection, schedule: Q01DX009 (ip), vehicle: Klucel (hydroxypropylcellulose) (HPC)
[5] = dose: 100.0 mg/kg/injection, schedule: Q04DX003 (ip), vehicle: Klucel (hydroxypropylcellulose) (HPC)
[6] = dose: 200.0 mg/kg/injection, schedule: Q01DX009 (ip), vehicle: Klucel (hydroxypropylcellulose) (HPC)
[7] = dose: 200.0 mg/kg/injection, schedule: Q04DX003 (ip), vehicle: Klucel (hydroxypropylcellulose) (HPC)
[8] = dose: 400.0 mg/kg/injection, schedule: Q01DX009 (ip), vehicle: Klucel (hydroxypropylcellulose) (HPC)
[9] = dose: 400.0 mg/kg/injection, schedule: Q04DX003 (ip), vehicle: Klucel (hydroxypropylcellulose) (HPC)
[10] = dose: 100.0 mg/kg/injection, schedule: Q01DX001 (ip), vehicle: saline
[11] = dose: 200.0 mg/kg/injection, schedule: Q01DX001 (ip), vehicle: saline
[12] = dose: 400.0 mg/kg/injection, schedule: Q01DX001 (ip), vehicle: saline
[13] = dose: 100.0 mg/kg/injection, schedule: Q04DX003 (ip), vehicle: saline
[14] = dose: 200.0 mg/kg/injection, schedule: Q04DX003 (ip), vehicle: saline
[15] = dose: 400.0 mg/kg/injection, schedule: Q04DX003 (ip), vehicle: saline
[16] = dose: 100.0 mg/kg/injection, schedule: Q01DX009 (ip), vehicle: saline with Tween-80
[17] = dose: 200.0 mg/kg/injection, schedule: Q01DX009 (ip), vehicle: saline with Tween-80
[18] = dose: 400.0 mg/kg/injection, schedule: Q01DX009 (ip), vehicle: saline with Tween-80
[19] = dose: 25.0 mg/kg/injection, schedule: Q01DX009 (ip), vehicle: saline
[20] = dose: 50.0 mg/kg/injection, schedule: Q01DX009 (ip), vehicle: saline

With `CN=C(N)c1ccc(NC(=O)c2ccc(C(=O)Nc3ccc(C(N)=NC)cc3)c(Cl)c2)cc1` the T/C (dose: 1.88 mg/kg/injection, schedule: Q01DX Z (ip), vehicle: saline) was 117 % of control, the T/C (dose: 7.5 mg/kg/injection, schedule: Q01DX Z (ip), vehicle: saline) was 252 % of control and the T/C (dose: 15.0 mg/kg/injection, schedule: Q01DX Z (ip), vehicle: saline) was 183 % of control. The T/C (dose: 60.0 mg/kg/injection, schedule: Q01DX Z (oral), vehicle: saline) was 105 % of control, the T/C (dose: 62.5 mg/kg/injection, schedule: Q## X010 (oral), vehicle: saline) was 102 % of control and the T/C (dose: 120.0 mg/kg/injection, schedule: Q01DX Z (oral), vehicle: saline) was 102 % of control. The T/C (dose: 125.0 mg/kg/injection, schedule: Q## X010 (oral), vehicle: saline) was 98 % of control, the T/C (dose: 240.0 mg/kg/injection, schedule: Q01DX Z (oral), vehicle: saline) was 103 % of control and the T/C (dose: 500.0 mg/kg/injection, schedule: Q## X010 (oral), vehicle: saline) was 102 % of control.
With `C=C(Cl)CN1CCCC(=O)c2ccccc21` the T/C [1] was 100 % of control, the T/C [2] was 94 % of control and the T/C [3] was 96 % of control.
With `COc1ccc(C(C(N)=O)N2CCCCC2)cc1` (centres undefined) the T/C [4] was 95 % of control, the T/C [5] was 107 % of control and the T/C [6] was 88 % of control. The T/C [7] was 94 % of control, the T/C [8] was 91 % of control and the T/C [9] was 102 % of control.
In the case of `C=CCC1(/C(=C\CC)CCC)C(=O)NC(=O)NC1=O`, the T/C (dose: 75.0 mg/kg/injection, schedule: Q01DX001 (ip), vehicle: saline) is reported as 96 % of control.
With `CC(=O)Nc1onc(C)c1[N+](=O)[O-]` the T/C [1] was 101 % of control, the T/C (dose: 100.0 mg/kg/injection, schedule: Q04DX003 (ip), vehicle: other) was 91 % of control and the T/C [2] was 98 % of control and 91 % of control. For the same molecule, the T/C (dose: 200.0 mg/kg/injection, schedule: Q04DX003 (ip), vehicle: other) was 92 % of control, the T/C [3] was 94 % of control and 86 % of control and the T/C (dose: 400.0 mg/kg/injection, schedule: Q04DX003 (ip), vehicle: other) was 94 % of control.
For `CC12CC3CC(C)(C1)CC(SCCCCCN=C(N)CSSCC(N)=NCCCCCSC14CC5CC(C)(CC(C)(C5)C1)C4)(C3)C2`, the T/C (dose: 10.0 mg/kg/injection, schedule: Q04DX002 (ip), vehicle: Klucel (hydroxypropylcellulose) (HPC)) was 110 % of control, the T/C (dose: 20.0 mg/kg/injection, schedule: Q04DX002 (ip), vehicle: Klucel (hydroxypropylcellulose) (HPC)) was 102 % of control and the T/C (dose: 40.0 mg/kg/injection, schedule: Q04DX002 (ip), vehicle: Klucel (hydroxypropylcellulose) (HPC)) was 87 % of control.
In the case of `Cc1cc(Cl)nc2ccc3ccccc3c12`, the T/C [10] is reported as 96 % of control, the T/C [11] is reported as 93 % of control and the T/C [12] is reported as 89 % of control.
In the case of `CC(=O)CC(=O)N1CCC(C)CC1`, the T/C [4] is reported as 96 % of control, the T/C [5] is reported as 103 % of control and the T/C [6] is reported as 100 % of control. For the same molecule, the T/C [7] was 101 % of control, the T/C [8] was 95 % of control and the T/C [9] was 101 % of control.
In the case of `C=CCOP(=O)(OCC=C)c1ccccc1`, the T/C (dose: 55.0 mg/kg/injection, schedule: Q01DX Z (ip), vehicle: methylcellulose (MC)) is reported as 89 % of control, the T/C (dose: 83.0 mg/kg/injection, schedule: Q01DX Z (ip), vehicle: methylcellulose (MC)) is reported as 98 % of control and the T/C (dose: 125.0 mg/kg/injection, schedule: Q01DX Z (ip), vehicle: methylcellulose (MC)) is reported as 93 % of control.
With `Cn1cnc([N+](=O)[O-])c1SCC(=O)O` the T/C [13] was 102 % of control, the T/C [14] was 102 % of control and the T/C [15] was 101 % of control.
`Cn1c(=O)c2c(ncn2CCO)n(C)c1=O` (tested in a mixture with another compound) was tested, and the T/C [16] was 89 % of control, the T/C [13] was 103 % of control and the T/C [17] was 94 % of control. For the same molecule, the T/C [14] was 97 % of control, the T/C [18] was 87 % of control and the T/C [15] was 108 % of control.
With `CCOC(=O)C12CCCC1=CC(=O)CC2` (centres undefined) the T/C (dose: 100.0 mg/kg/injection, schedule: Q04DX002 (ip), vehicle: Klucel (hydroxypropylcellulose) (HPC)) was 107 % of control, the T/C (dose: 200.0 mg/kg/injection, schedule: Q04DX002 (ip), vehicle: Klucel (hydroxypropylcellulose) (HPC)) was 121 % of control and the T/C (dose: 400.0 mg/kg/injection, schedule: Q04DX002 (ip), vehicle: Klucel (hydroxypropylcellulose) (HPC)) was 104 % of control.
`CC(=O)NO` was tested, and the T/C (dose: 100.0 mg/kg/injection, schedule: Q04DX002 (ip), vehicle: saline) was 102 % of control, the T/C (dose: 200.0 mg/kg/injection, schedule: Q04DX002 (ip), vehicle: saline) was 112 % of control and the T/C (dose: 400.0 mg/kg/injection, schedule: Q04DX002 (ip), vehicle: saline) was 108 % of control.
In the case of `CCOC(=O)NC1CC2CCC1C2` (centres undefined), the T/C (dose: 50.0 mg/kg/injection, schedule: Q01DX001 (ip), vehicle: carboxymethylcellulose (CMC)) is reported as 110 % of control, the T/C (dose: 100.0 mg/kg/injection, schedule: Q01DX001 (ip), vehicle: carboxymethylcellulose (CMC)) is reported as 103 % of control and the T/C (dose: 200.0 mg/kg/injection, schedule: Q01DX001 (ip), vehicle: carboxymethylcellulose (CMC)) is reported as 103 % of control. For the same molecule, the T/C (dose: 400.0 mg/kg/injection, schedule: Q01DX001 (ip), vehicle: carboxymethylcellulose (CMC)) was 103 % of control.
`CC/C=C(\C)C1(CC)C(=O)NC(=S)NC1=O` was tested, and the T/C (dose: 75.0 mg/kg/injection, schedule: Q01DX001 (ip), vehicle: carboxymethylcellulose (CMC)) was 89 % of control.
`CC12CCC(C1)C(C)(C)C2C(N)=O` (centres undefined) was tested, and the T/C [5] was 93 % of control and the T/C [7] was 93 % of control.
`Nc1nc(N)c(CCCCc2ccccc2)c(C=O)n1` was tested, and the T/C [4] was 98 % of control.
In the case of `CC1(C)OC(=O)C2CCCCC21` (centres undefined), the T/C [19] is reported as 89 % of control, the T/C [20] is reported as 93 % of control and the T/C [10] is reported as 97 % of control. The T/C [11] was 90 % of control.
For `CC(C)(O)CNS(=O)(=O)c1ccc(Br)cc1`, the T/C [4] was 105 % of control and the T/C [6] was 101 % of control.
`CC(=O)NC(C(=O)O)C(C)C` (centres undefined) was tested, and the T/C [10] was 97 % of control, the T/C [11] was 87 % of control and the T/C [12] was 99 % of control.
For `O=C(/C=C\c1cccc2ccccc12)c1ccc2ccccc2c1`, the T/C [16] was 100 % of control, the T/C (dose: 100.0 mg/kg/injection, schedule: Q04DX002 (ip), vehicle: saline with Tween-80) was 88 % of control and the T/C [17] was 90 % of control. The T/C (dose: 200.0 mg/kg/injection, schedule: Q04DX002 (ip), vehicle: saline with Tween-80) was 88 % of control, the T/C [18] was 93 % of control and the T/C (dose: 400.0 mg/kg/injection, schedule: Q04DX002 (ip), vehicle: saline with Tween-80) was 88 % of control.
For `C1CC[N+]2(CC1)CCC2`, the T/C (dose: 12.0 mg/kg/injection, schedule: Q04DX003 (ip), vehicle: saline) was 106 % of control, the T/C (dose: 12.5 mg/kg/injection, schedule: Q01DX009 (ip), vehicle: saline) was 97 % of control and the T/C [19] was 100 % of control. The T/C (dose: 25.0 mg/kg/injection, schedule: Q04DX003 (ip), vehicle: saline) was 94 % of control, the T/C [20] was 100 % of control and the T/C (dose: 50.0 mg/kg/injection, schedule: Q04DX003 (ip), vehicle: saline) was 111 % of control. The T/C [10] was 107 % of control and the T/C [11] was 115 % of control.
`O=C(Nc1ccccc1)Nc1ccc(Cl)c(Cl)c1` was tested, and the T/C (dose: 100.0 mg/kg/injection, schedule: Q01DX001 (ip), vehicle: saline with Tween-80) was 95 % of control, the T/C [4] was 101 % of control and the T/C [5] was 107 % of control. The T/C (dose: 200.0 mg/kg/injection, schedule: Q01DX001 (ip), vehicle: saline with Tween-80) was 97 % of control, the T/C [6] was 94 % of control and the T/C [7] was 89 % of control. The T/C (dose: 400.0 mg/kg/injection, schedule: Q01DX001 (ip), vehicle: saline with Tween-80) was 90 % of control, the T/C [8] was 95 % of control and the T/C [9] was 86 % of control.
With `O=[N+]([O-])c1cc([N+](=O)[O-])c(Br)cc1F` the T/C (dose: 2.5 mg/kg/injection, schedule: Q01DX009 (ip), vehicle: Klucel (hydroxypropylcellulose) (HPC)) was 92 % of control and the T/C (dose: 5.0 mg/kg/injection, schedule: Q01DX009 (ip), vehicle: Klucel (hydroxypropylcellulose) (HPC)) was 99 % of control.
For `CCN(CC)CCOCC(=O)Nc1c(C)cccc1Cl`, the T/C (dose: 100.0 mg/kg/injection, schedule: Q04DX003 (ip), vehicle: saline sonified) was 93 % of control and the T/C (dose: 200.0 mg/kg/injection, schedule: Q04DX003 (ip), vehicle: saline sonified) was 106 % of control.
